The values below come from patent US20240335395A1, “COMPOSITIONS AND METHODS FOR PREVENTING AND/OR TREATING DISEASE ASSOCIATED WITH IL-23 EXPRESSION” (ALLSPIM, priority 2021, published 2024).

The test system of assay [1] is collagen induced arthritis (CIA) in DBA/1 mice. Description: Collagen induced arthritis (CIA) in DBA/1 mice, clinical score. It counts as in vivo, mouse. The note with it: for decrease of mean clinical score compared with control group: as from day 5 post-treatment. The source says:
Induction of collagen induced arthritis (CIA) in DBA/1 mice treated with oral 2,4-D. Forty DBA/1 mice (8-12 weeks of age; 20 males and 20 females) were obtained from the Center for Experimental Animals in Beijing, China. The CIA model was established according to the standard Hooke Protocol (accessible at https://hookelabs.com/protocols/cialnduction_DBA1.html). Complete Freund's adjuvant (CFA) and incomplete Freund's adjuvant (IFA) were purchased from Hooke Laboratories. 35 days after immunization, the 40 immunized mice were distributed randomly into 4 groups (10 controls, 10 treated with 0.2 mg daily oral 2,4-D, 10 treated with 1 mg daily oral 2,4-D for 15 days). All animals were followed for an additional 15 days post-treatment.
CIA scoring. CIA is scored on a scale of 0 to 16 (0 to 4 for each paw, adding the scores for all 4 paws), using the following criteria:
Statistical analysis. Data are presented as the mean±SEM for the in vivo animal study. Statistical analysis was performed using Student's t-test (paired 2-sample testing).

For assay [2], the system named is laser-induced choroidal neovascularization (CNV). Description: Laser-induced CNV in rats, CNV surface on lectin-labelled RPE-choroid flat-mounts. Type of assay: in vivo, rat. Conditions: intravitreous injection. Here is the method:
Animals. All experiments were performed in accordance with the European Communities Council Directive 86/609/EEC and approved by local ethical committees (#2541-2015110210279792 v3). Six- to eight-week-old male Long Evans rats from the Janvier Breeding Center (Le Genest-Saint-Isle, France) were used to create a rat model of choroidal neovascularization (CNV) used as a model of human wet macular degeneration. Laser-induced CNV. After anesthesia and dilation of the pupils, coverslips were positioned on the cornea as a contact glass. […] Animals were sacrificed at 7 days (n=6 per group- and at 16 days (n=6 per group). RPE-choroid flat-mounts and CNV quantifications. Two days after FA examination (time necessary for fluorescein elimination), eyes were enucleated, fixed in 4% PFA for 15 min at room temperature and sectioned at the limbus; the cornea and lens were discarded. The retina was separated from the RPE-choroid complex. Eight radial incisions were made on the RPE-choroid, which was then flat-mounted and post-fixed with acetone for 15 min at −20° C. After washing with 0.1% Triton x100 in PBS, FITC-GSL I-Isolectin B4 (1:200, Vector, AbCys, Paris, France) was applied over night at […] Images of the CNV were captured with a digital video camera coupled to a computer system on an Olympus fluorescence microscope. […]

Assay [3] concerns MSU-induced knee joint edema. Description: MSU-induced knee joint edema in mice. Type of assay: in vivo, mouse. The note with it: 20 h. Here is the method: 2,4-D, isolated and purified from Chloranthus spicatus (purity≥98%), was purchased from BOC Science (Shirley, NY). Colchicine (CLC) (purity≥96%) and dexamethasone (DEX) (purity≥98%) were purchased from Sigma. Mice (six per group) were treated with 2,4-D (100 mg/kg or 20 mg/kg, i.p.), CLC (1 mg/kg or 0.2 mg/kg, i.p.), DEX (0.5 mg/kg or 0.1 mg/kg, i.p.), or vehicle (20% polyoxyethylenesorbitan monooleate (Tween 80) plus PBS) 30 min before intra-articular stimulus with MSU (100 μg/10 μL, i.a.). Six mice with intra-articular injection with PBS alone served as a negative control.
Preparation of monosodium urate crystal (MSU). MSU crystals were prepared as described previously (Ruiz-Miyazawa et al., 2017). Briefly, 800 mg of monosodium urate was dissolved in 155 ml of boiling milli-Q water containing 2N NaOH. After pH adjustment to 8.9, the solution was cooled gradually by stirring at room temperature and crystallized overnight at 4° C. Crystals were collected, and centrifuged at 3,000×g for 2 min at 4° C. The crystals were evaporated and sterilized by heating at 180° C. for 2 h and stored in a sterile environment until use. The load of endotoxin present in the MSU crystals was determined using a ToxinSensor^TM Single Test Kit (GenScript).
Induction of MSU-Induced Knee Joint Inflammation. Male ICR (CD-1) mice (35-45 g, 10-12 weeks) were purchased from VitalRiver Inc (Beijing, China) and were kept in an animal care facility under controlled temperature of 21±1° C., humidity, and on a light/dark cycle, with ad libitum access to water and standard laboratory chow diet. Animal care and handling procedures were approved by the Animal Ethics Committee of GZUCM (Guangzhou University of Chinese Medicine). All efforts were made to minimize animal suffering and to reduce the number of animals used. Joint inflammation was induced by the intra-articular (i.a.) administration of MSU (200 μg/20 μl) into the right and left knee joints of mice under inhaled 3% isoflurane anesthesia. Control animals received an injection (i.a.) of sterile PBS (20 μL).
Evaluation of Knee Joint Edema. Knee joint edema was determined with a caliper (Mitutoyo) before (zero time), and after the intra-articular injection with MSU at the times indicated. Knee joint edema was determined for each mouse by the difference between the time points indicated on figures and the zero time (Ruiz-Miyazawa et al, 2017). The edema value is represented as Amm/joint.
Statistical Analysis. Data were analyzed using GraphPad Prism statistical software (GraphPad Software, Inc., United States-500.288, version 5.0). Results are presented as means±SEM or SD of measurements made on 6 mice per group, with statistical significance determined by two-way ANOVA, comparing each group to the control (“Model”) group. For in vitro experiments, microassays were performed in quadruplicate. p<0.05 was considered significant (*p<0.05, **p<0.01, ***p<0.001).

For `COc1cc(O)c(OC)c(O)c1C(=O)/C=C/c1ccccc1` [2,4-D, 2′,4′-dihydroxy-3′,6′-dimethoxychalcone], the results for the “decrease of mean clinical score compared with control group” value in assay [1] (high dose 1 mg per day oral) and in assay [1] (low dose 0.2 mg per day oral) were 2- to 7 fold and 2- to 3 fold, respectively. Further, in assay [1] (high dose, 15 days after withdrawal), the “suppression of CIA after withdrawal of treatment” value is “maintained”. Moreover, in assay [2], the “CNV size (surface of lectin positive labelling)” value is given as “significantly reduced”. Further, the “reduction of MSU-induced knee joint edema” value in assay [3] (high dose i.p.: 2,4-D 100 mg/kg, CLC 1 mg/kg, DEX 0.5 mg/kg) came to 68.4%; in assay [3] (low dose i.p.: 2,4-D 20 mg/kg, DEX 0.1 mg/kg), 45.3%.
